# According to US20240158393A1, “PYRIDONE COMPOUNDS AND METHODS OF USE” (Exelixis, Inc., priority 2021, published 2024):
# Columns and labels:
# [1] = target: T1, Human Mer (Homo sapiens, UniProt Q12866); assay: Human Mer kinase assay (33P radiometric / HTRF KinEase); type: biochemical; details: protocols of Examples C-1 and/or C-2
# T1 construct: Human Mer (residues R557-E882 with H628Q and R794A, 0.7 nM); purchased Eurofins Pharma Discovery Services UK Limited (KinaseProfiler service)
# T1 sequence (Q12866 557-882 limits assumed): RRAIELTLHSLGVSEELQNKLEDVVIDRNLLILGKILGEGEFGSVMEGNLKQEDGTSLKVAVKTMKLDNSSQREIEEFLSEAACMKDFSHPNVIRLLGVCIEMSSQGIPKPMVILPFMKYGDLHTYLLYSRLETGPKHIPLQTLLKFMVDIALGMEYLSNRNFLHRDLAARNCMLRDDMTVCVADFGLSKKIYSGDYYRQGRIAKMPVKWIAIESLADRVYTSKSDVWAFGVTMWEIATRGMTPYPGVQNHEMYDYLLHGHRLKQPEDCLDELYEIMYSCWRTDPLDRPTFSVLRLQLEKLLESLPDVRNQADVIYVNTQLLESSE
# In short: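 Two formats yield IC50 values. HTRF KinEase used MER residues 528-999 with ATP at Km (40 μM), 1 μM biotin-peptide, 60 min RT, […], 10 concentrations. 33P filter assay used 0.7 nM Mer R557-E882 (H628Q/R794A), 10 μM ATP, 250 μM peptide, 40 min RT, top 1 μM.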
# [2] = target: T2, Human KDR (Homo sapiens, UniProt P35968); assay: Human KDR kinase assay (33P radiometric / HTRF KinEase); type: biochemical; details: protocols of Examples B-1 and/or B-2
# T2 construct: Human KDR (residues K790-V1356, 55 nM); purchased Eurofins Pharma Discovery Services UK Limited (KinaseProfiler, B-1) and/or CarnaBio (B-2)
# T2 sequence (P35968 790-1356): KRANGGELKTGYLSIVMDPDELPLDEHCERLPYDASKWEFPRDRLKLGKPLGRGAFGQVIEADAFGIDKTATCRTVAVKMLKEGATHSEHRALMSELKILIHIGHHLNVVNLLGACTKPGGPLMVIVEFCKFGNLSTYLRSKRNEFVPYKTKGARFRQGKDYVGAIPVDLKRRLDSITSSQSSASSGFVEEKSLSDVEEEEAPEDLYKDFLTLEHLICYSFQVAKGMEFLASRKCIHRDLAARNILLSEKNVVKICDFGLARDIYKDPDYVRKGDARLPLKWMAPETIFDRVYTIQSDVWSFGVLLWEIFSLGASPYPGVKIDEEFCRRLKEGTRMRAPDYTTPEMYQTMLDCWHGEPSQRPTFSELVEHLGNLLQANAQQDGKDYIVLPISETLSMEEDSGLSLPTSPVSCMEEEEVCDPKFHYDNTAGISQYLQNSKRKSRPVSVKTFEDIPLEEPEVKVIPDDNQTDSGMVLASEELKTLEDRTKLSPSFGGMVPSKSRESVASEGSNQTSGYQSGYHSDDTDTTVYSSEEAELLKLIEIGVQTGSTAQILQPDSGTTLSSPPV
# In short: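 Radiometric: KDR K790-V1356 (55 nM), MOPS pH 7.0, myelin basic protein, 10 μM [γ-33P]ATP, 40 min at room temperature, filter-bound 33P counted; nine half-log doses, top 1 μM. HTRF: KDR 790-1356, 1 μM biotinylated peptide, ATP at Km (4.0 μM), 40 min, 10 doses. IC50 from logistic fits.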
Compound,IC50 [1],IC50 [2]
"COCCOc1cc2nccc(Oc3ccc(NC(=O)c4c(C)nc(C)c(C5=CCCC5)c4O)cc3F)c2nc1OC [Compound 41, 5-(Cyclopenten-1-yl)-N-[3-fluoro-4-[[6-methoxy-7-(2-methoxyethoxy)-1,5-naphthyridin-4-yl]oxy]phenyl]-4-hydroxy-2,6-dimethylpyridine-3-carboxamide]",≤ 100 nM,≤ 100 nM
"COCCOc1cc2nccc(Oc3cc(F)c(NC(=O)c4c(C)n(C)c(C)c(C#N)c4=O)cc3F)c2nc1OC [Compound 83, 5-Cyano-N-[2,5-difluoro-4-[[6-methoxy-7-(2-methoxyethoxy)-1,5-naphthyridin-4-yl]oxy]phenyl]-1,2,6-trimethyl-4-oxopyridine-3-carboxamide]",> 300 nM,> 300 nM
"COc1cc2nccc(Oc3ccc(NC(=O)c4cnc(C)c(C5=CCOCC5)c4O)cc3F)c2nc1OC [Compound 1-3, 5-(3,6-Dihydro-2H-pyran-4-yl)-N-[4-[(6,7-dimethoxy-1,5-naphthyridin-4-yl)oxy]-3-fluorophenyl]-4-hydroxy-6-methylpyridine-3-carboxamide]",≤ 100 nM,≤ 100 nM
"COc1cc2nccc(Oc3ccc(NC(=O)c4c5n(cc(C6=CCOCC6)c4=O)CCOC5)cc3)c2nc1OC [Compound G1-8, 7-(3,6-Dihydro-2H-pyran-4-yl)-N-[4-[(6,7-dimethoxy-1,5-naphthyridin-4-yl)oxy]phenyl]-8-oxo-3,4-dihydro-1H-pyrido[2,1-c][1,4]oxazine-9-carboxamide]",≤ 100 nM,> 300 nM
"COc1cnc2c(Oc3ccc(NC(=O)c4c(C)nc(C)c(C(C)C)c4O)cc3F)ccnc2c1 [Compound 32, N-[3-Fluoro-4-[(7-methoxy-1,5-naphthyridin-4-yl)oxy]phenyl]-4-hydroxy-2,6-dimethyl-5-propan-2-ylpyridine-3-carboxamide]",≤ 100 nM,≤ 100 nM
"COc1cc2nccc(Oc3ccc(NC(=O)c4c(C)nc(C)c(C(=O)NC(C)C)c4O)cc3F)c2nc1OC [Compound 94, 3-N-[4-[(6,7-Dimethoxy-1,5-naphthyridin-4-yl)oxy]-3-fluorophenyl]-4-hydroxy-2,6-dimethyl-5-N-propan-2-ylpyridine-3,5-dicarboxamide]",≤ 100 nM,≤ 100 nM
"COc1cc2nccc(Oc3ccc(NC(=O)c4c(C)nc(C)c(C(=O)N(C)C)c4O)cc3F)c2nc1OC [Compound 93, 3-N-[4-[(6,7-Dimethoxy-1,5-naphthyridin-4-yl)oxy]-3-fluorophenyl]-4-hydroxy-5-N,5-N,2,6-tetramethylpyridine-3,5-dicarboxamide]",> 300 nM,≤ 100 nM
"COCCOc1cc2nccc(Oc3ccc(NC(=O)c4c(C)n(C)c(C)c(/C=C/C5CC5)c4=O)cc3F)c2nc1OC [Compound 51, 5-[(E)-2-Cyclopropylethenyl]-N-[3-fluoro-4-[[6-methoxy-7-(2-methoxyethoxy)-1,5-naphthyridin-4-yl]oxy]phenyl]-1,2,6-trimethyl-4-oxopyridine-3-carboxamide]",≤ 100 nM,> 300 nM
"COc1cnc2c(Oc3ccc(NC(=O)c4cn(C)c(C)c(C5=CCOCC5)c4=O)cc3F)ccnc2c1 [Compound 12, 5-(3,6-Dihydro-2H-pyran-4-yl)-N-[3-fluoro-4-[(7-methoxy-1,5-naphthyridin-4-yl)oxy]phenyl]-1,6-dimethyl-4-oxopyridine-3-carboxamide]",≤ 100 nM,> 300 nM
"COCCOc1cc2nccc(Oc3ccc(NC(=O)c4cnc(C)c(/C=C/C5CC5)c4O)cc3F)c2nc1OC [Compound 37, 5-[(E)-2-Cyclopropylethenyl]-N-[3-fluoro-4-[[6-methoxy-7-(2-methoxyethoxy)-1,5-naphthyridin-4-yl]oxy]phenyl]-4-hydroxy-6-methylpyridine-3-carboxamide]",≤ 100 nM,≤ 100 nM
"COc1cc2nccc(Oc3ccc(NC(=O)c4c(C)n(C)c(C)c(/C=C/C(C)(C)C)c4=O)cc3F)c2nc1OC [Compound 49, N-[4-[(6,7-Dimethoxy-1,5-naphthyridin-4-yl)oxy]-3-fluorophenyl]-5-[(E)-3,3-dimethylbut-1-enyl]-1,2,6-trimethyl-4-oxopyridine-3-carboxamide]",≤ 100 nM,≤ 100 nM
"COc1cc2nccc(Oc3ccc(NC(=O)c4cnc(C)c(/C=C/C(C)(C)C)c4O)cc3F)c2cc1OC [Compound 30, N-[4-(6,7-Dimethoxyquinolin-4-yl)oxy-3-fluorophenyl]-5-[(E)-3,3-dimethylbut-1-enyl]-4-hydroxy-6-methylpyridine-3-carboxamide]",≤ 100 nM,≤ 100 nM
"COCCOc1cc2nccc(Oc3ccc(NC(=O)c4c(C)nc(C)c(C5=CCOCC5)c4O)cc3F)c2nc1OC [Compound 43, 5-(3,6-Dihydro-2H-pyran-4-yl)-N-[3-fluoro-4-[[6-methoxy-7-(2-methoxyethoxy)-1,5-naphthyridin-4-yl]oxy]phenyl]-4-hydroxy-2,6-dimethylpyridine-3-carboxamide]",≤ 100 nM,≤ 100 nM
"COc1cc2nccc(Oc3ccc(NC(=O)c4cnc(C)c(/C=C/C(C)(C)C)c4O)cc3F)c2nc1OC [Compound 27, N-[4-[(6,7-Dimethoxy-1,5-naphthyridin-4-yl)oxy]-3-fluorophenyl]-5-[(E)-3,3-dimethylbut-1-enyl]-4-hydroxy-6-methylpyridine-3-carboxamide]",≤ 100 nM,≤ 100 nM
"COCCOc1cc2nccc(Oc3ccc(NC(=O)c4c(O)c(C5=CCOCC5)c(C)[n+](C)c4C)cc3F)c2nc1OC [Compound 44, 5-(3,6-Dihydro-2H-pyran-4-yl)-N-[3-fluoro-4-[[6-methoxy-7-(2-methoxyethoxy)-1,5-naphthyridin-4-yl]oxy]phenyl]-1,2,6-trimethyl-4-oxopyridine-3-carboxamide]",≤ 100 nM,100 to 300 nM

# Now from value to compound:
IC50 [1],IC50 [2],Compound
≤ 100 nM,≤ 100 nM,"COc1cc2nccc(Oc3ccc(NC(=O)c4c(C)n(C)c(C)c(N5CCCC5)c4=O)cc3F)c2nc1OC [Compound 89, N-[4-[(6,7-Dimethoxy-1,5-naphthyridin-4-yl)oxy]-3-fluorophenyl]-1,2,6-trimethyl-4-oxo-5-pyrrolidin-1-ylpyridine-3-carboxamide]"
≤ 100 nM,≤ 100 nM,"COc1cc2nccc(Oc3ccc(NC(=O)c4cn(CCF)c(C)c(C5=CCCCC5)c4=O)cc3F)c2nc1OC [Compound 8, 5-(Cyclohexen-1-yl)-N-[4-[(6,7-dimethoxy-1,5-naphthyridin-4-yl)oxy]-3-fluorophenyl]-1-(2-fluoroethyl)-6-methyl-4-oxopyridine-3-carboxamide]"
≤ 100 nM,> 300 nM,"COc1cc2nccc(Oc3ccc(NC(=O)c4c(C)n(C)c(C)c(N5CCOCC5)c4=O)cc3F)c2nc1OC [Compound 88, N-[4-[(6,7-Dimethoxy-1,5-naphthyridin-4-yl)oxy]-3-fluorophenyl]-1,2,6-trimethyl-5-morpholin-4-yl-4-oxopyridine-3-carboxamide]"
> 300 nM,100 to 300 nM,"COc1cc2nccc(Oc3ccc(NC(=O)c4c(C)nc(C)c(C#N)c4O)cc3F)c2nc1OC [Compound 87, 5-Cyano-N-[4-[(6,7-dimethoxy-1,5-naphthyridin-4-yl)oxy]-3-fluorophenyl]-4-hydroxy-2,6-dimethylpyridine-3-carboxamide]"
≤ 100 nM,> 300 nM,"COc1cc2nccc(Oc3ccc(NC(=O)c4c(C)n(C)c(C)c(C5CC5)c4=O)cc3F)c2nc1OC [Compound 46, 5-Cyclopropyl-N-[4-[(6,7-dimethoxy-1,5-naphthyridin-4-yl)oxy]-3-fluorophenyl]-1,2,6-trimethyl-4-oxopyridine-3-carboxamide]"
≤ 100 nM,≤ 100 nM,"COc1cc2nccc(Oc3ccc(NC(=O)c4c(C)cc(C)n(C5CCCC5)c4=O)cc3F)c2nc1OC [Compound 15, 1-Cyclopentyl-N-[4-[(6,7-dimethoxy-1,5-naphthyridin-4-yl)oxy]-3-fluorophenyl]-4,6-dimethyl-2-oxopyridine-3-carboxamide]"
≤ 100 nM,≤ 100 nM,"COc1cc2nccc(Oc3ccc(NC(=O)c4cnc(C)c(/C=C/C5CC5)c4O)cc3F)c2nc1OC [Compound 26, 5-[(E)-2-Cyclopropylethenyl]-N-[4-[(6,7-dimethoxy-1,5-naphthyridin-4-yl)oxy]-3-fluorophenyl]-4-hydroxy-6-methylpyridine-3-carboxamide]"
> 300 nM,> 300 nM,"COc1cc2nccc(Oc3ccc(NC(=O)c4c(C)n(C)c(C)c(C(=O)NC5CC5)c4=O)cc3F)c2nc1OC [Compound 96, 3-N-Cyclopropyl-5-N-[4-[(6,7-dimethoxy-1,5-naphthyridin-4-yl)oxy]-3-fluorophenyl]-1,2,6-trimethyl-4-oxopyridine-3,5-dicarboxamide]"
